Reference: patent US10414775B2 (Merck Sharp & Dohme Corp., priority 2016, dated 2019)
Counter-ions that a name gives are not always drawn.

Each molecule was assayed against T1, Human CYP8B1 (Homo sapiens, UniProt Q9UNU6) (assay: Human Cyp8B1 Liver Microsome Assay). Details: human liver microsomes; substrate 7α-hydroxy-4-cholesten-3-one, NADPH; 30 min pre-incubation, 45 min reaction; RapidFire MS readout.
T1 construct: tissue Xenotech; host or cells: human liver microsomes
T1 sequence (Q9UNU6 1-501): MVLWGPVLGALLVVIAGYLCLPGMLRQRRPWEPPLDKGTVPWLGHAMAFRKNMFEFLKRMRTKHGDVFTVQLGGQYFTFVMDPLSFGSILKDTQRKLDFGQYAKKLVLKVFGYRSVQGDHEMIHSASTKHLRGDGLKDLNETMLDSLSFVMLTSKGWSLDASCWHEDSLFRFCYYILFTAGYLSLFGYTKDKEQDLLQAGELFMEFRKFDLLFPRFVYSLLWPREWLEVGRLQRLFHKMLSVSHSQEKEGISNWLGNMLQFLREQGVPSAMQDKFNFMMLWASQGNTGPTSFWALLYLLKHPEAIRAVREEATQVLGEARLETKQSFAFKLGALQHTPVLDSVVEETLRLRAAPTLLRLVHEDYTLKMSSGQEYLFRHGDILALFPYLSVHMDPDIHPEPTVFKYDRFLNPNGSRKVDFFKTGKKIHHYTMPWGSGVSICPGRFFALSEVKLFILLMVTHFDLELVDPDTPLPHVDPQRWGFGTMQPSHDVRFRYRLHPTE
Assay type: biochemical
Method: Human Cyp8B1 Liver Microsome Assay To a 384 well polypropylene plate (Corning 3656), 250 nl of inhibitor in 100% DMSO (1.25% final DMSO concentration) was pre-plated using an Echo liquid handler (Labcyte Inc.). Human liver microsomes (Xenotech) were diluted in of 0.1 M phosphate buffer, pH 7.4, at a concentration of 65 μg/ml and 15 μL was added to the 384 well plate. The plates were incubated at ambient room temperature for 30 minutes. After pre-incubation with inhibitor, the reaction was initiated by adding 5 μl of substrate solution (4.0 μM 7α-hydroxy-4-cholesten-3-one(Toronto Research Chemicals), 2 mM of NADPH (Sigma), 0.1 M phosphate buffer (pH 7.4). The reaction was carried out for 45 minutes at ambient room temperature and was quenched by the addition of 50 μl of acetonitrile+0.1% vol/vol formic acid (FA)+300 nM 7α-hydroxy-4-cholesten-3-one-d7 (Toronto Research Chemicals). The plates were sealed and centrifuged at 3000 rpm for 5 minutes. Plates were loaded onto the Agilent RapidFire RF300 HTMS system, wherein samples were sipped for 600 ms, and the sip sensor detection signals the diversion of sample from the loop onto a C4 solid phase extraction (SPE) cartridge, where salts are washed off for 2500 ms with a mobile phase of water with 0.1% vol/vol FA at a flow rate of 1.5 ml/min. The column path is switched, and the sample is eluted off the cartridge and flowed into the mass spectrometer for 3000 ms with a mobile phase of acetonitrile and 0.1% vol/vol FA at a flow rate of 1.25 ml/min. The aspirator tip was washed separately with water and acetonitrile between sample aspirations (each for 600 ms) to minimize carryover contamination. Mass spectrometry was carried out using a Sciex API4000 triple quadrupole mass spectrometer (Applied Biosystems, Concord, ON, Canada) equipped with electrospray ionization (ESI) operated in the positive-ion mode. The product 7α, 12α-dihydroxy-4-cholesten-3-one and internal standard 7α-hydroxy-4-cholsten-3-one-d7 were detected using multiple reaction monitoring (MRM) with Q1/Q3 transitions at m/z 417.3 to 381.3 and m/z 408.3 to 390.3, respectively, with a dwell time of 100 ms and a collision energy of 24 V for each transition. The mass spectrometer used an ESI voltage of 5000 V and a source temperature of 650° C. Extracted ion chromatograms for each transition were integrated and processed using the RapidFire Integrator software. The data for each well were normalized by monitoring product conversion with the ratio of AUCproduct/(AUCinternal standard). The data was then fitted to a four parameter logistic fit using ActivityBase Software to calculate an IC50 of the inhibitor.
`Cc1nc2ccc(F)cc2c(N2CC[C@H](C(=O)N3CCn4c(nnc4C(F)(F)F)C3)[C@H](C)C2)c1C` [Example 16, [(3S,4S)-1-(6-fluoro-2,3-dimethylquinolin-4-yl)-3-methylpiperidin-4-yl][3-(trifluoromethyl)-5,6-dihydro[1,2,4]tria-zolo[4,3-a]pyrazin-7(8H)-yl]methanone] was tested, and the IC50 was 37 nM.
`C[C@@H]1CN(c2ccnc3cc(C4CC4)ccc23)CC[C@@H]1C(=O)N1CCn2c(nnc2C(F)(F)F)C1` [Example 28, 7-cyclopropyl-4-[(3S,4S)-3-methyl-4-{[3-(trifluoromethyl)-5,6-dihydro[1,2,4]tria-zolo[4,3-a]pyrazin-7(8H)-yl]carbonyl}piper-idin-1-yl]quinolinium chloride] showed an IC50 of 0.66 nM.
Molecule `COc1ccc2c(N3CC[C@H](C(=O)N4CCn5c(nnc5C(F)(F)F)C4)[C@H](C)C3)ccnc2c1` [Example 23, [(3S,4S)-1-(7-methoxyquinolin-4-yl)-3-methylpiperidin-4-yl][3-(trifluoromethyl)-5,6-dihydro[1,2,4]tria-zolo[4,3-a]pyrazin-7(8H)-yl]methanone] has an IC50 of 237 nM.
`C[C@@H]1CN(c2c(Cl)c[n+]([O-])c3cc(C(F)(F)F)ccc23)CC[C@@H]1C(=O)N1CCn2c(nnc2C(F)(F)F)C1` [Example 40, {(3S,4S)-1-[3-chloro-1-oxido-7-(trifluoromethyl)quinolin-4-yl]-3-methylpiperidin-4-yl}[3-(trifluoromethyl)-5,6-dihydro[1,2,4]triazolo[4,3-a]pyrazin-7(8H)-yl]methanone] was tested, and the IC50 was 0.8 nM.
Molecule `C[C@@H]1CN(c2ccnc3cc(-n4cncn4)ccc23)CC[C@@H]1C(=O)N1CCn2c(nnc2C(F)(F)F)C1` [Example 74, ((3S,4S)-1-(7-(1H-1,2,4-triazol-1-yl)quinolin-4-yl)-3-methylpiperidin-4-yl)(3-(trifluoromethyl)-5,6-dihydro-[1,2,4]triazolo[4,3-a]pyrazin-7(8H)-yl)methanone] has an IC50 of 41.7 nM.
In the case of `C[C@@H]1CN(c2ccnc3cc(C(F)F)ccc23)CC[C@@H]1C(=O)N1CCn2c(nnc2C(F)(F)F)C1` [Example 58, ((3S,4S)-1-(7-(difluoromethyl)quinolin-4-yl)-3-methylpiperidin-4-yl)(3-(trifluoromethyl)-5,6-dihydro-[1,2,4]triazolo[4,3-a]pyrazin-7(8H)-yl)methanone], the IC50 is reported as 5.97 nM.
Work on `C[C@@H]1CN(c2ccnc3cc(C(C)(F)F)ccc23)CC[C@@H]1C(=O)N1CCn2c(nnc2C(F)(F)F)C1` [Example 46, {(3S,4S)-1-[7-(1,1-difluoroethyl)quinolin-4-yl]-3-methylpiperidin-4-yl}[3-(trifluoromethyl)-5,6-dihydro[1,2,4]triazolo[4,3-a]pyrazin-7(8H)-yl]methanone] yielded an IC50 of 1.1 nM.
Molecule `COc1cnc2c(N3CC[C@H](C(=O)N4CCn5c(nnc5C(F)(F)F)C4)[C@H](C)C3)ccnc2c1` [Example 25, [(3S,4S)-1-(7-methoxy-1,5-naphthyridin-4-yl)-3-methylpiperidin-4-yl][3-(trifluoromethyl)-5,6-dihydro[1,2,4]tria-zolo[4,3-a]pyrazin-7(8H)-yl]methanone] has an IC50 of 307 nM.
`C[C@@H]1CN(c2c(Cl)cnc3cc(C(C)(F)F)ccc23)CC[C@@H]1C(=O)N1CCn2c(nnc2C(F)(F)F)C1` [Example 49, {(3S,4S)-1-[3-chloro-7-(1,1-difluoroethyl)quinolin-4-yl]-3-methylpiperidin-4-yl}[3-(trifluoromethyl)-5,6-dihydro[1,2,4]triazolo[4,3-a]pyrazin-7(8H)-yl]methanone] gave an IC50 of 0.46 nM.
`C[C@@H]1CN(c2ccnc3cc(Cl)cnc23)CC[C@@H]1C(=O)N1CCn2c(nnc2C(F)(F)F)C1` [Example 2, ((3S,4S)-1-(7-chloro-1,5-naphthyridin-4-yl)-3-methylpiperidin-4-yl)(3-(trifluoromethyl)-5,6-dihydro-[1,2,4]triazolo[4,3-a]pyrazin-7(8H)-yl)methanone] showed an IC50 of 18 nM.
`C[C@@H]1CN(c2ccnc3cc(O)ccc23)CC[C@@H]1C(=O)N1CCn2c(nnc2C(F)(F)F)C1` [Example 38, [(3S,4S)-1-(7-hydroxyquinolin-4-yl)-3-methylpiperidin-4-yl][3-(trifluoromethyl)-5,6-dihydro[1,2,4]triazolo[4,3-a]pyrazin-7(8H)-yl]methanone] was tested, and the IC50 was 2890 nM.
Work on `C[C@@H]1CN(c2ccnc3ccc(Cl)cc23)CC[C@@H]1C(=O)N1CCn2c(nnc2C(F)(F)F)C1` (single isomer, unassigned) [Example 11a] yielded an IC50 of 3.5 nM.
Molecule `C[C@@H]1CN(c2ccnc3c(F)c(Cl)ccc23)CC[C@@H]1C(=O)N1CCn2c(nnc2C(F)(F)F)C1` [Example 20, 7-chloro-8-fluoro-4-[(3S,4S)-3-methyl-4-{[3-(trifluoromethyl)-5,6-dihydro[1,2,4]tria-zolo[4,3-a]pyrazin-7(8H)-yl]carbonyl}piper-idin-1-yl]quinolinium trifluoroacetate] has an IC50 of 14 nM.
For `C[C@@H]1CN(c2c(C(N)=O)cnc3cc(OCC4CC4)ccc23)CC[C@@H]1C(=O)N1CCn2c(nnc2C(F)(F)F)C1` [Example 39, 7-(cyclopropylmethoxy)-4-[(3S,4S)-3-methyl-4-{[3-(trifluoromethyl)-5,6-dihydro[1,2,4]triazolo[4,3-a]pyrazin-7(8H)-yl]carbonyl}piperidin-1-yl]quinoline-3-carboxamide], the IC50 was 5.29 nM.
`COc1ccc2c(N3CC[C@H](C(=O)N4CCn5c(nnc5C(F)(F)F)C4)[C@H](C)C3)c(Cl)cnc2c1F` [Example 41, [(3S,4S)-1-(3-chloro-8-fluoro-7-methoxyquinolin-4-yl)-3-methylpiperidin-4-yl][3-(trifluoromethyl)-5,6-dihydro[1,2,4]triazolo[4,3-a]pyrazin-7(8H)-yl]methanone] gave an IC50 of 0.38 nM.
`C[C@@H]1CN(c2c(F)cnc3cc(C(F)(F)F)ccc23)CC[C@@H]1C(=O)N1CCn2c(nnc2C(F)(F)F)C1` [Example 45, {(3S,4S)-1-[3-fluoro-7-(trifluoromethyl)quinolin-4-yl]-3-methylpiperidin-4-yl}[3-(trifluoromethyl)-5,6-dihydro[1,2,4]triazolo[4,3-a]pyrazin-7(8H)-yl]methanone] showed an IC50 of 0.25 nM.
Molecule `C[C@@H]1CN(c2c(Cl)cnc3cc(F)ccc23)CC[C@@H]1C(=O)N1CCn2c(nnc2C(F)(F)F)C1` [Example 4, ((3S,4S)-1-(3-chloro-7-fluoroquinolin-4-yl)-3-methylpiperidin-4-yl)(3-(trifluoromethyl)-5,6-dihydro-[1,2,4]triazolo[4,3-a]pyrazin-7(8H)-yl)methanone] has an IC50 of 0.6 nM.
With `C[C@@H]1CN(c2ccnc3cc(-c4ncco4)ccc23)CC[C@@H]1C(=O)N1CCn2c(nnc2C(F)(F)F)C1` [Example 73, ((3S,4S)-3-methyl-1-(7-(oxazol-2-yl)quinolin-4-yl)piperidin-4-yl)(3-(trifluoromethyl)-5,6-dihydro-[1,2,4]triazolo[4,3-a]pyrazin-7(8H)-yl)methanone] the IC50 was 0.4 nM.
In the case of `Cc1cnc2cc(C(C)(F)F)ccc2c1N1CC[C@H](C(=O)N2CCn3c(nnc3C(F)(F)F)C2)[C@H](C)C1` [Example 52, {(3S,4S)-1-[7-(1,1-difluoroethyl)-3-methylquinolin-4-yl]-3-methylpiperidin-4-yl}[3-(trifluoromethyl)-5,6-dihydro[1,2,4]triazolo[4,3-a]pyrazin-7(8H)-yl]methanone], the IC50 is reported as 0.31 nM.
Work on `C[C@@H]1CN(c2ccnc3cc(Cl)ccc23)CC[C@@H]1C(=O)N1CCn2c(nnc2C(F)(F)F)C1` [Example 21, [(3S,4S)-1-(7-chloroquinolin-4-yl)-3-methylpiperidin-4-yl][3-(trifluoromethyl)-5,6-dihydro[1,2,4]tria-zolo[4,3-a]pyrazin-7(8H)-yl]methanone] yielded an IC50 of 6.3 nM.
